Laboratory results from US9980943B2, “Methods of treating muscular dystrophy” (BOARD OF REGENTS OF THE NEVADA SYSTEM OF HIGHER EDUCATION, …, priority 2013, dated 2018).
Read-outs that look alike come from different tables or passages of the source.

Test system: α7 integrin (LacZ reporter in α7LacZ+/− myoblasts)
Assay: qHTS of the LOPAC library and MLSMR (online screen, α7LacZ+/− myoblasts)
Details: for activation at 0.307 µM / activation at 1.53 µM / activation at 7.66 µM / activation at 38.3 µM / Emax / EC50: Mus musculus, Myoblast; for activation at 0.307 µM: read-out: Activity at 0.307 uM [%] **; for activation at 1.53 µM: read-out: Activity at 1.530 uM [%] **; for activation at 7.66 µM: read-out: Activity at 7.660 uM [%] **; for activation at 38.3 µM: read-out: Activity at 38.30uM [%] **; for EC50: read-out: Fit LogAC50 (converted); for Score: Table 8 Compound data
[1] = 48 h, read-out: Fit Infinite Activity [%]

Row | SMILES | activation at 0.307 µM (48 h) | activation at 1.53 µM (48 h) | activation at 7.66 µM (48 h) | activation at 38.3 µM (48 h) | Emax [1] | Emax (read-out: Max Response [%]) | EC50 | Score
1 | COC(=O)C1SCC2C(=O)N(Cc3ccc(F)cc3)CC(=O)N21 (stereo not drawn) [Compound 187] | -53.6% | -42.4% | -1.79% | 51.5% | 65.7% | 51.5% | – | –
2 | CCOc1ccccc1NC(=O)c1cccc2c1C(=O)N(C1CCCCC1)C2 [Compound 15] | -13.7% | 4.71% | 58% | 73.6% | 75.3% | – | 3.16 µM | –
3 | O=C(CSc1nnc(C2CC2)n1C1CC1)c1cccs1 [Compound 133] | -26% | -28.4% | 5.99% | 70.2% | 73.1% | 70.2% | 10 µM | –
4 | CC(=O)Nc1nonc1-c1nc2ccccc2n1CCC(C)C [Compound 219] | -8.22% | -3.05% | 21.4% | 66% | 76.4% | 66% | – | –
5 | COc1cc(=O)n(C)c2ccccc12 [Compound 25] | -16.5% | 11.1% | 54.5% | 63% | 64.1% | – | 2.24 µM | –
6 | COc1ccc(-c2csc3ncnc(N4CCN(c5ccccc5[N+](=O)[O-])CC4)c23)cc1 [Compound 94] | 11.5% | 8.66% | 36.5% | 138% | 138% | 138% | 10 µM | 43
7 | Cc1ccc(OCC(=O)N2CCN(S(=O)(=O)c3ccc4c(c3)OCCO4)CC2)c(C)c1 [Compound 27] | -26.2% | 3.31% | 51.6% | 53.8% | 55% | – | 2 µM | –
8 | COCCn1c(=N)c(S(=O)(=O)c2ccc(Br)cc2)cc2c(=O)n3ccccc3nc21 [Compound 96] | -7.89% | 1.1% | 54.5% | 73.2% | 75% | 73.2% | 4.47 µM | –
9 | CN(C)/C(S)=N/c1cccc(C(F)(F)F)c1 [Compound 172] | 8.95% | 7.22% | 31.2% | 71.2% | 73.8% | 71.2% | 10 µM | –
10 | O=C1SC(Cc2ccccc2)C(=O)N1c1ccccc1 (stereo not drawn) [Compound 50] | 7.9% | 9.4% | 94.1% | 176% | 186% | – | 7.94 µM | –
11 | COc1cc(C(C(=O)NC2CCCCC2)N(C(=O)c2snc(C(N)=O)c2N)c2ccc(C)cc2)ccc1O (stereo not drawn) [Compound 71] | 0% | 9.63% | 58.8% | 109% | 122% | 109% | 7.94 µM | –
12 | CCCS(=O)(=O)N1CCCC(C(=O)c2cccc(Cl)c2)C1 (stereo not drawn) [Compound 84] | -5.29% | 11% | 59.7% | 102% | 114% | 102% | 6.31 µM | –
13 | CC(=O)c1ccc(N(C(=O)CNC(=O)c2ccco2)C(C(=O)NC2CCCC2)c2ccc(C)o2)cc1 (stereo not drawn) [Compound 146] | -20.8% | -20.9% | 0% | 75.5% | 75.5% | 75.5% | 10 µM | –
14 | NS(=O)(=O)c1ccc(NC(=O)c2cc(-c3ccccc3O)[nH]n2)cc1 [Compound 105] | 15.4% | 17.9% | 44.2% | 112% | 113% | 112% | 10 µM | –
15 | COc1ccc(-c2c[nH]nc2-c2ccc(OC)cc2)cc1 [Compound 106] | -0.495% | 9.02% | 40.4% | 70.1% | 79.2% | 70.1% | – | –
16 | CCOc1ccc2oc(C(=O)OCC(=O)NC(=O)NC)c(C)c2c1 [Compound 115] | -3.94% | 0% | 40.2% | 77.6% | 80.7% | 77.6% | 7.08 µM | –
17 | CCNC(=O)COC(=O)c1cc(-c2ccco2)nc2ccccc12 [Compound 175] | -59.9% | -45.5% | 5.39% | 48.1% | 54% | 48.1% | – | –
18 | O=C(COc1cc2oc(=O)c3c(c2cc1Cl)CCCC3)NC[C@H]1CC[C@H](C(=O)O)CC1 [Compound 95] | -12.4% | 3.06% | 36.2% | 67.9% | 83.4% | 67.9% | 7.08 µM | –

Row | SMILES | activation at 0.307 µM (48 h) | activation at 1.53 µM (48 h) | activation at 7.66 µM (48 h) | activation at 38.3 µM (48 h) | Emax [1] | Emax (read-out: Max Response [%]) | EC50 | Score
19 | Cc1ccc(-c2onc3ccc(C(=O)/C=C/N(C)C)cc23)cc1 [Compound 39] | -7.76% | 5.51% | 52.9% | 69.1% | 69.5% | – | 3.55 µM | –
20 | Oc1c(Br)cc(Br)cc1CNc1cccc2cccnc12 [Compound 110] | -18.9% | -17.9% | 0% | 161% | 163% | 161% | 12.6 µM | 43
21 | CC(=O)c1cccc(NC(=O)C(=O)Nc2cccc3ccccc23)c1 [Compound 197] | 5.25% | 15.7% | 40.8% | 66.9% | 84.7% | 66.9% | – | –
22 | COc1ccc(Cl)cc1NC(=O)CC(=O)Nc1cc(Cl)ccc1OC [Compound 41] | 8.75% | 9.71% | 34.1% | 453% | 457% | – | 14.1 µM | –
23 | O=C1CCc2cc(S(=O)(=O)Nc3ccc(C(F)(F)F)cc3)cc3c2N1CC3 [Compound 138] | -26.1% | -19.1% | 23.6% | 85.8% | 108% | 85.8% | – | –
24 | CC(C)/N=C(\S)NN=C1CCCCCCCCCCC1 [Compound 36] | 7.67% | 25.7% | 65.1% | 78.6% | 81.2% | – | 3.16 µM | –
25 | CCCC(=O)Nc1ccccc1NC(=O)c1ccc(OCC)cc1 [Compound 206] | 12.1% | 15.3% | 28.5% | 91.2% | 91.9% | 91.2% | – | –
26 | Cc1nnc(NC(=O)CSc2nnc(CCNC(=O)c3ccccc3F)n2C)s1 [Compound 147] | 0.45% | 2.7% | 29.1% | 84.9% | 91.2% | 84.9% | – | –
27 | CC(=O)Nc1ccc(N(C(=O)c2cnccn2)C(C(=O)NC2CCCCC2)c2ccc(F)cc2)cc1 (stereo not drawn) [Compound 44] | -13.5% | -18.8% | 38.1% | 308% | 311% | – | 11.2 µM | –
28 | CC(OC(=O)c1cc(-c2cccnc2)nc2ccccc12)C(=O)Nc1ccc2ccccc2c1 (stereo not drawn) [Compound 1] | 0% | 143% | 198% | 191% | 195% | – | 1.12 µM | –
29 | COC(=O)c1ccc(C2C(C(=O)c3cc4ccccc4o3)=C(O)C(=O)N2CCN2CCOCC2)cc1 (stereo not drawn) [Compound 141] | -17.2% | -18.3% | 2.6% | 82.7% | 82.8% | 82.7% | 10 µM | –
30 | CC(/C=C(\O)c1ccccc1)=N\c1ccc(Br)c(Cl)c1 [Compound 130] | 7.18% | 9.18% | 26.1% | 127% | 128% | 127% | – | –
31 | C/C(=N\OCC(=O)OC(C)C(=O)Nc1ccc(C(N)=O)cc1)c1ccc2c(c1)OCO2 (stereo not drawn) [Compound 70] | -15.5% | 4.11% | 57.2% | 89.5% | 96.1% | 89.5% | 4.47 µM | –
32 | NC1=Nc2cccc3cccc1c23 [Compound 117] | 0% | 5.07% | 43.6% | 82.2% | 88.8% | 82.2% | 7.94 µM | –
33 | CN(C)c1ccnc2sc(C(N)=O)c(N)c12 [Compound 87] | 20.9% | 26.5% | 69.1% | 86.5% | 87.8% | 86.5% | – | –
34 | Fc1ccc(-c2ccnn2-c2ccccc2)cc1 [Compound 107] | -17.2% | -3.24% | 46% | 73.3% | 76.4% | 73.3% | 4.47 µM | –
35 | CCCCS(=O)(=O)N1CCCC(C(=O)NCCc2ccccc2)C1 (stereo not drawn) [Compound 111] | 4.12% | 15.4% | 54.6% | 89.9% | 101% | 89.9% | 7.08 µM | –
